{
  "source": "ChEMBL document CHEMBL3997763",
  "about": "(Medchemcomm, 2016)",
  "key": {"[1]": {"system": "Liver", "test": "Stability in Sprague-Dawley rat liver microsomes at 10 uM in absence of NADPH after 5 to 90 mins by LC-MS/MS analysis", "format": "ADME, microsome"}, "[2]": {"system": "Rattus norvegicus", "test": "Hypolipidemic activity in HFD-induced Charles Foster rat chronic hyperlipidemia model assessed as increase in fecal excretion of deoxycholic acid at 100 mg/kg administered via oral gavage for 30 days simultaneously with high fat diet by enzymatic method relative to HFD treated vehicle", "format": "functional"}, "[3]": {"system": "Rattus norvegicus", "test": "Antihyperlipidemic activity in triton WR-1339 induced Charles Foster rat hyperlipidemia model assessed as increase in HDL-C level in serum at 150 mg/kg, po administered simultaneously with triton WR-1339 after 18 hrs by enzymatic method relative to control", "format": "functional"}, "[4]": {"system": "Rattus norvegicus", "test": "Hypolipidemic activity in HFD-induced Charles Foster rat assessed as reduction in serum VLDL-TC at 100 mg/kg administered as single dose via oral gavage for 30 days simultaneously with high fat diet", "format": "functional, organism-based"}, "[5]": {"test": "Apparent MRT in Sprague-Dawley rat at 100 mg/kg, po administered as single dose by LC-MS/MS analysis", "format": "ADME, organism-based", "settings": "in vivo"}, "[6]": {"system": "Rattus norvegicus", "test": "Antihyperlipidemic activity in triton WR-1339 induced Charles Foster rat hyperlipidemia model assessed as inhibition of total cholesterol level in serum at 150 mg/kg, po administered simultaneously with triton WR-1339 after 18 hrs by enzymatic method relative to control", "format": "functional"}, "[7]": {"system": "Rattus norvegicus", "test": "Hypolipidemic activity in HFD-induced Charles Foster rat chronic hyperlipidemia model assessed as reduction in serum total cholesterol level at 100 mg/kg administered via oral gavage for 30 days simultaneously with high fat diet by enzymatic method relative to HFD treated vehicle", "format": "functional", "settings": "720 h"}, "[8]": {"target": "T1, 3-hydroxy-3-methylglutaryl-coenzyme A reductase (Homo sapiens) (UniProt P04035)", "T1 sequence (whole entry)": "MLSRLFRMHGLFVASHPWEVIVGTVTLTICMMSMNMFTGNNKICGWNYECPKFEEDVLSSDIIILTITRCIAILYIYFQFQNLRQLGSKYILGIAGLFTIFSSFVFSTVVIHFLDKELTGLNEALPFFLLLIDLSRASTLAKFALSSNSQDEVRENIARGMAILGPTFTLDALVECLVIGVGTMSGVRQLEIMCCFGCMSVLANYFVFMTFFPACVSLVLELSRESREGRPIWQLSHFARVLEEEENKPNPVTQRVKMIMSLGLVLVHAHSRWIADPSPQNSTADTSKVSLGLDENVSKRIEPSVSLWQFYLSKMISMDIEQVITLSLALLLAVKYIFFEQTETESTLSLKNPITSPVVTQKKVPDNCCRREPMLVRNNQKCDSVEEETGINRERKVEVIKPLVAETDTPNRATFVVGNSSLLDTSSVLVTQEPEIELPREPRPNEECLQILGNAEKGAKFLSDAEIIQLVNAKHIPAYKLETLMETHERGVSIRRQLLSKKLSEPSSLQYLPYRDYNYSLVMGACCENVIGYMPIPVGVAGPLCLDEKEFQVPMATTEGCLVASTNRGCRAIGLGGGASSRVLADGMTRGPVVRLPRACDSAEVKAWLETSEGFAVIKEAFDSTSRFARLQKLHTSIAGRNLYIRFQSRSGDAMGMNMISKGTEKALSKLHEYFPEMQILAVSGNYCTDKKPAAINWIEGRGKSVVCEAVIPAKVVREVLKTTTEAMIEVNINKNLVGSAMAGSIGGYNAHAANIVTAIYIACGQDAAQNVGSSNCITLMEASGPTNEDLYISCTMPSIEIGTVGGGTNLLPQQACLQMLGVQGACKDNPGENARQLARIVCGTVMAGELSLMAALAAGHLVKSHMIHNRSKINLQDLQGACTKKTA", "test": "Inhibition of human HMG-CoA reductase catalytic domain at 100 uM using HMG-CoA as substrate in presence of NADPH by colorimetric method relative to control"}, "[9]": {"system": "Rattus norvegicus", "test": "Antihyperlipidemic activity in triton WR-1339 induced Charles Foster rat hyperlipidemia model assessed as increase in HDL-C level in serum at 100 mg/kg, po administered simultaneously with triton WR-1339 after 18 hrs by enzymatic method relative to control", "format": "functional"}, "[10]": {"test": "Apparent oral clearance in Sprague-Dawley rat at 100 mg/kg administered as single dose by LC-MS/MS analysis", "format": "ADME, organism-based", "settings": "in vivo"}, "[11]": {"target": "T1, 3-hydroxy-3-methylglutaryl-coenzyme A reductase (Homo sapiens)", "test": "Inhibition of human HMG-CoA reductase catalytic domain at 20 uM using HMG-CoA as substrate in presence of NADPH by colorimetric method relative to control"}, "[12]": {"system": "Rattus norvegicus", "test": "Hypolipidemic activity in HFD-induced Charles Foster rat assessed as reduction in serum LDL-TC at 100 mg/kg administered as single dose via oral gavage for 30 days simultaneously with high fat diet", "format": "functional, organism-based"}, "[13]": {"system": "Rattus norvegicus", "test": "Hypolipidemic activity in HFD-induced Charles Foster rat chronic hyperlipidemia model assessed as reduction in liver triglyceride level at 100 mg/kg administered via oral gavage for 30 days simultaneously with high fat diet by enzymatic method relative to HFD treated vehicle", "format": "functional", "settings": "720 h"}, "[14]": {"system": "Rattus norvegicus", "test": "Hypolipidemic activity in HFD-induced Charles Foster rat assessed as inhibition of hepatic HMG-CoA reductase activity by measuring […] at 100 mg/kg administered as single dose via oral gavage for 30 days simultaneously with high fat diet by colorimetric method", "format": "functional, organism-based"}, "[15]": {"system": "Rattus norvegicus", "test": "Hypolipidemic activity in HFD-induced Charles Foster rat chronic hyperlipidemia model assessed as reduction in liver total cholesterol level at 100 mg/kg administered via oral gavage for 30 days simultaneously with high fat diet by enzymatic method relative to HFD treated vehicle", "format": "functional", "settings": "720 h"}, "[16]": {"target": "Albumin (Bos taurus, UniProt P02769)", "sequence (P02769 whole entry)": "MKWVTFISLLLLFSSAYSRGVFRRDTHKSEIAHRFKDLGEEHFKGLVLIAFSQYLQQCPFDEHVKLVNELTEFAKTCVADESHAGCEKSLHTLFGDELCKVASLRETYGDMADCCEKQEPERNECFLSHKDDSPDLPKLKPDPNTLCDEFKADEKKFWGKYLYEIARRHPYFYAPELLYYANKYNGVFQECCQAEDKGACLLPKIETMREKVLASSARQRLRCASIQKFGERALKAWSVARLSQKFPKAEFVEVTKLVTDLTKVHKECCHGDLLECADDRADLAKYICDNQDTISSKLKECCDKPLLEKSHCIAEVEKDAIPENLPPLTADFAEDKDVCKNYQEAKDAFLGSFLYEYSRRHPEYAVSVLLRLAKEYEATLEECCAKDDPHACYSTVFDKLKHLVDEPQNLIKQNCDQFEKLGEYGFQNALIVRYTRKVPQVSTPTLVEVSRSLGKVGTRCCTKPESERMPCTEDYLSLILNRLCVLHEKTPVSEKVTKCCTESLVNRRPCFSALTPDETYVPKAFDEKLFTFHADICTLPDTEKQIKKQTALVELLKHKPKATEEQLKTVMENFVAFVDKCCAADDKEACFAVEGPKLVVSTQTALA", "test": "Binding affinity to bovine serum albumin by absorption spectroscopic method", "format": "ADME", "settings": "cattle, isolated protein"}, "[17]": {"system": "Rattus norvegicus", "test": "Hypolipidemic activity in HFD-induced Charles Foster rat chronic hyperlipidemia model assessed as reduction in serum ALT level at 100 mg/kg administered via oral gavage for 30 days simultaneously with high fat diet by colorimetric method relative to HFD treated vehicle", "format": "functional", "settings": "720 h"}, "[18]": {"system": "Rattus norvegicus", "test": "Hypolipidemic activity in HFD-induced Charles Foster rat assessed as reduction in serum LDL-TG at 100 mg/kg administered as single dose via oral gavage for 30 days simultaneously with high fat diet", "format": "functional, organism-based"}, "[19]": {"system": "Rattus norvegicus", "test": "Antihyperlipidemic activity in triton WR-1339 induced Charles Foster rat hyperlipidemia model assessed as inhibition of total cholesterol level in serum at 50 mg/kg, po administered simultaneously with triton WR-1339 after 18 hrs by enzymatic method relative to control", "format": "functional"}, "[20]": {"target": "T1, 3-hydroxy-3-methylglutaryl-coenzyme A reductase (Homo sapiens)", "test": "Inhibition of human HMG-CoA reductase catalytic domain at 1 uM using HMG-CoA as substrate in presence of NADPH by colorimetric method relative to control"}, "[21]": {"system": "Rattus norvegicus", "test": "Antihyperlipidemic activity in po dosed triton WR-1339 induced Charles Foster rat hyperlipidemia model assessed as inhibition of triglyceride level in serum administered simultaneously with triton WR-1339 after 18 hrs by enzymatic method relative to control", "format": "functional, organism-based"}, "[22]": {"test": "AUC (0 to infinity) in Sprague-Dawley rat at 100 mg/kg, po administered as single dose by LC-MS/MS analysis", "format": "ADME, organism-based", "set-up": "dose 100 mg/kg, time infinity, route oral", "settings": "in vivo"}, "[23]": {"system": "Rattus norvegicus", "test": "Toxicity in HFD-induced Charles Foster rat chronic hyperlipidemia model assessed as food intake at 100 mg/kg administered via oral gavage for 30 days simultaneously with high fat diet (reference value: 9.81 +/- 0.61 g/day)", "format": "organism-based", "settings": "in vivo, 720 h"}},
  "note": "Active and inactive are the calls of the source. No cut-off for these calls is given here.",
  "data": [
    {"compound": "COc1ccc(-c2cc3cc(C(c4c[nH]c5ccccc45)c4c[nH]c5ccccc45)cc(C(C)(C)C)c3oc2=O)cc1OC", "values": [
      {"measurement": "Stability", "setting": "[1]", "value": "Stable"},
      {"measurement": "Activity", "setting": "[2]", "value": 39, "unit": "%"},
      {"measurement": "Activity", "setting": "[3]", "value": 25, "unit": "%"},
      {"measurement": "Activity", "setting": "[4]", "value": "Active"},
      {"measurement": "MRT", "setting": "[5]", "value": 4.46, "unit": "h"},
      {"measurement": "inhibition in vivo at 150 mg/kg", "setting": "[6]", "value": 33, "unit": "%"},
      {"measurement": "inhibition in vivo at 100 mg/kg", "setting": "[7]", "value": 24, "unit": "%"},
      {"measurement": "inhibition", "setting": "[8]", "value": 81, "unit": "%"},
      {"measurement": "Activity", "setting": "[9]", "value": 23, "unit": "%"},
      {"measurement": "CL/F", "setting": "[10]", "value": 241, "unit": "L/h/kg"},
      {"measurement": "inhibition", "setting": "[11]", "value": 63, "unit": "%"},
      {"measurement": "Activity", "setting": "[12]", "value": "Active"},
      {"measurement": "inhibition in vivo at 100 mg/kg", "setting": "[13]", "value": 29, "unit": "%"},
      {"measurement": "inhibition", "setting": "[14]", "value": "Active"},
      {"measurement": "inhibition in vivo at 100 mg/kg", "setting": "[15]", "value": 27, "unit": "%"},
      {"measurement": "Activity", "setting": "[16]", "value": "Active"},
      {"measurement": "inhibition in vivo at 100 mg/kg", "setting": "[17]", "value": 26, "unit": "%"},
      {"measurement": "Activity", "setting": "[18]", "value": "Active"},
      {"measurement": "inhibition in vivo at 50 mg/kg", "setting": "[19]", "value": 20, "unit": "%"},
      {"measurement": "inhibition", "setting": "[20]", "value": 19, "unit": "%"},
      {"measurement": "inhibition", "setting": "[21]", "value": "Dose-dependent effect"},
      {"measurement": "AUC(0-inf)", "setting": "[22]", "value": 417, "unit": "ng·h/mL"},
      {"measurement": "Activity", "setting": "[23]", "value": 9.63, "unit": "g/day"}
    ]}
  ]
}
